molecular target: T1, human chemokine receptor 2 isoform B (Homo sapiens, UniProt P41597); experiment: Calcium mobilization assay (CHOK1-CCR2B-A5 cells, FLIPR, MCP-1 stimulated); type: cell-based; conditions: Ca mobilisation assay for CCR2, antagonist activity, 50% inhibition of specific calcium increases after 20 nM MCP-1
T1 construct: host or cells: CHOK1-CCR2B-A5 (CHO-K1)
T1 sequence (P41597 1-360 isoform P41597-2): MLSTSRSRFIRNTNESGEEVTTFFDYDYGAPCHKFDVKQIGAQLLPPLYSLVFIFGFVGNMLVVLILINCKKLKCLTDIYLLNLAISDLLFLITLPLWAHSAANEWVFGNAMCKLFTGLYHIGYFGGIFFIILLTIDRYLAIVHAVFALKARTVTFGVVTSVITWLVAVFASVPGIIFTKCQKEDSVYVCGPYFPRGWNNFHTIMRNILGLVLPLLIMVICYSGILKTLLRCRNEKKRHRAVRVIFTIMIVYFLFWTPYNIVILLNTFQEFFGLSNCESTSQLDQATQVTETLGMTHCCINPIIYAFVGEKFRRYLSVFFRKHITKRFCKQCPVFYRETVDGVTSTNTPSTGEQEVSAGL
Description: CHOK1-CCR2B-A5 cells (from Euroscreen) stably overexpressing the human chemokine receptor 2 isoform B were cultured in Nutrient Hams F12 medium supplemented with 5% FBS, 100 U/ml penicillin, 100 μg/ml streptomycin, 400 μg/ml G418 and 5 μg/ml puromycin.
For the assay cells were grown overnight in 384-well black clear flat bottom polystyrene plates (Costar) at 37° C. at 5% CO2. After washing with DMEM, 20 mM Hepes, 2.5 mM probenecid, 0.1% BSA (DMEM assay buffer) cells were loaded with 4 μM Fluo-4 in the same DMEM assay buffer for 2 hours at 30° C. Excess dye was removed and cells were washed with DMEM assay buffer. 384-well compound plates were prepared with DMEM assay buffer/0.5% DMSO with or without various concentrations of test compounds. Usually compounds were tested for agonist and antagonist activity.
Test compounds were added to the assay plate and agonist activity was monitored as fluorescence for 80 seconds with a FLIPR (488 nm excitation; 510-570 nm emission; Molecular Devices). After 20-30 min. of incubation at 30° C., 20 nM MCP-1 (R&D; Roche) was added and fluorescence was monitored again for 80 seconds. Increases in intracellular calcium are reported as maximum fluorescence after agonist exposure minus basal fluorescence before exposure. Antagonist activity is indicated as inhibitor concentration required for 50% inhibition of specific calcium increases.

Structure (SMILES) | IC50
C[C@H]1C(=O)N2[C@H](CCN3CCC4(CC4)[C@H](O)C3)CCC[C@@H]2CN1C(=O)Nc1ccc(Cl)c(Cl)c1 (racemic) [Example 38, (3S,9aR)-6-[2-((S)-4-Hydroxy-6-aza-spiro[2.5]oct-6-yl)-ethyl]-3-methyl-4-oxo-octahydro-pyrido[1,2-a]pyrazine-2-carboxylic acid (3,4-dichloro-phenyl)-amide] | 0.0088 µM
C[C@H]1C(=O)N2[C@@H](CCN3CCC4(CC4)[C@H](O)C3)CO[C@H]2CN1C(=O)Nc1ccc(Cl)c(Cl)c1 [Example 1, (3S,6S,8aS)-3-[2-((S)-4-Hydroxy-6-aza-spiro[2.5]oct-6-yl)-ethyl]-6-methyl-5-oxo-hexahydro-oxazolo[3,2-a]pyrazine-7-carboxylic acid (3,4-dichloro-phenyl)-amide] | 0.0058 µM
C[C@H]1C(=O)N2[C@@H](CCN3CCC4(CC4)[C@H](O)C3)CO[C@@H]2CN1C(=O)Nc1ccc(Cl)c(Cl)c1 [Example 2, (3S,6S,8aR)-3-[2-((S)-4-hydroxy-6-aza-spiro[2.5]oct-6-yl)-ethyl]-6-methyl-5-oxo-hexahydro-oxazolo[3,2-a]pyrazine-7-carboxylic acid (3,4-dichloro-phenyl)-amide] | 0.0022 µM
C[C@H]1C(=O)N2C(CN1C(=O)Nc1cccc(Cl)c1)OC[C@@H]2CCN1CCC2(CC2)[C@H](O)C1 (stereo partly drawn) [Example 3, (3S,6S)-3-[2-((S)-4-Hydroxy-6-aza-spiro[2.5]oct-6-yl)-ethyl]-6-methyl-5-oxo-hexahydro-oxazolo[3,2-a]pyrazine-7-carboxylic acid (3-chloro-phenyl)-amide] | 0.0604 µM
C[C@H]1C(=O)N2C(CN1C(=O)Nc1ccc(F)c(Cl)c1)OC[C@@H]2CCN1CCC2(CC2)[C@H](O)C1 (stereo partly drawn) [Example 4, (3S,6S)-3-[2-((S)-4-Hydroxy-6-aza-spiro[2.5]oct-6-yl)-ethyl]-6-methyl-5-oxo-hexahydro-oxazolo[3,2-a]pyrazine-7-carboxylic acid (3-chloro-4-fluoro-phenyl)-amide] | 0.016 µM
C[C@H]1C(=O)N2C(CN1C(=O)Nc1cccc(C(F)(F)F)c1)OC[C@@H]2CCN1CCC2(CC2)[C@H](O)C1 (stereo partly drawn) [Example 5, (3S,6S)-3-[2-((S)-4-Hydroxy-6-aza-spiro[2.5]oct-6-yl)-ethyl]-6-methyl-5-oxo-hexahydro-oxazolo[3,2-a]pyrazine-7-carboxylic acid (3-trifluoromethyl-phenyl)-amide] | 0.0679 µM
C[C@H]1C(=O)N2[C@@H](CCN3CCC4(CC4)[C@H](O)C3)CO[C@H]2CN1C(=O)Nc1ccc(F)c(Cl)c1 [Example 6, (3S,6S,8aS)-3-[2-((S)-4-Hydroxy-6-aza-spiro[2.5]oct-6-yl)-ethyl]-6-methyl-5-oxo-hexahydro-oxazolo[3,2-a]pyrazine-7-carboxylic acid (3-chloro-4-fluoro-phenyl)-amide] | 0.072 µM
C[C@H]1C(=O)N2[C@@H](CCN3CCC4(CC4)[C@H](O)C3)CO[C@@H]2CN1C(=O)Nc1ccc(F)c(Cl)c1 [Example 7, (3S,6S,8aR)-3-[2-((S)-4-hydroxy-6-aza-spiro[2.5]oct-6-yl)-ethyl]-6-methyl-5-oxo-hexahydro-oxazolo[3,2-a]pyrazine-7-carboxylic acid (3-chloro-4-fluoro-phenyl)-amide] | 0.025 µM
C[C@H]1C(=O)N2[C@@H](CCN3CCC4(CC4)[C@H](O)C3)CO[C@H]2CN1C(=O)Nc1cccc(C(F)(F)F)c1 [Example 8, (3S,6S,8aS)-3-[2-((S)-4-Hydroxy-6-aza-spiro[2.5]oct-6-yl)-ethyl]-6-methyl-5-oxo-hexahydro-oxazolo[3,2-a]pyrazine-7-carboxylic acid (3-trifluoromethyl-phenyl)-amide] | 0.146 µM
C[C@H]1C(=O)N2[C@@H](CCN3CCC4(CC4)[C@H](O)C3)CO[C@@H]2CN1C(=O)Nc1cccc(C(F)(F)F)c1 [Example 9, (3S,6S,8aR)-3-[2-((S)-4-hydroxy-6-aza-spiro[2.5]oct-6-yl)-ethyl]-6-methyl-5-oxo-hexahydro-oxazolo[3,2-a]pyrazine-7-carboxylic acid (3-trifluoromethyl-phenyl)-amide] | 0.0689 µM
C[C@H]1C(=O)N2[C@@H](CCCN3CCC4(CC4)[C@H](O)C3)COC2(C)CN1C(=O)Nc1ccc(Cl)c(Cl)c1 (stereo partly drawn) [Example 12, (3S,6S)-3-[3-((S)-4-Hydroxy-6-aza-spiro[2.5]oct-6-yl)-propyl]-6,8a-dimethyl-5-oxo-hexahydro-oxazolo[3,2-a]pyrazine-7-carboxylic acid (3,4-dichloro-phenyl)-amide] | 0.012 µM
C[C@H]1C(=O)N2[C@@H](CCCN3CCC4(CC4)[C@H](O)C3)COC2(C)CN1C(=O)Nc1ccc(C(F)(F)F)c(Cl)c1 (stereo partly drawn) [Example 13, (3S,6S)-3-[3-((S)-4-Hydroxy-6-aza-spiro[2.5]oct-6-yl)-propyl]-6,8a-dimethyl-5-oxo-hexahydro-oxazolo[3,2-a]pyrazine-7-carboxylic acid (3-chloro-4-trifluoromethyl-phenyl)-amide] | 0.0127 µM
C[C@H]1C(=O)N2[C@@H](CCN3CCC4(CC4)[C@H](O)C3)CO[C@]2(C)CN1C(=O)Nc1ccc(Cl)c(Cl)c1 [Example 14, (3S,6S,8aR)-3-[2-((S)-4-Hydroxy-6-aza-spiro[2.5]oct-6-yl)-ethyl]-6,8a-dimethyl-5-oxo-hexahydro-oxazolo[3,2-a]pyrazine-7-carboxylic acid (3,4-dichloro-phenyl)-amide] | 0.0111 µM
C[C@H]1C(=O)N2C(CN1C(=O)Nc1cccc(Cl)c1)OC[C@@H]2CCCN1CCC2(CC2)[C@H](O)C1 (stereo partly drawn) [Example 15, (3S,6S)-3-[3-((S)-4-Hydroxy-6-aza-spiro[2.5]oct-6-yl)-propyl]-6-methyl-5-oxo-hexahydro-oxazolo[3,2-a]pyrazine-7-carboxylic acid (3-chloro-phenyl)-amide] | 0.0328 µM
C[C@H]1C(=O)N2C(CN1C(=O)Nc1ccc(Cl)c(Cl)c1)OC[C@@H]2CCCN1CCC2(CC2)[C@H](O)C1 (stereo partly drawn) [Example 16, (3S,6S)-3-[3-((S)-4-Hydroxy-6-aza-spiro[2.5]oct-6-yl)-propyl]-6-methyl-5-oxo-hexahydro-oxazolo[3,2-a]pyrazine-7-carboxylic acid (3,4-dichloro-phenyl)-amide] | 0.0074 µM
C[C@H]1C(=O)N2[C@@H](CCCN3CCC4(CC4)[C@H](O)C3)CO[C@H]2CN1C(=O)Nc1ccc(Cl)c(Cl)c1 [Example 17, (3S,6S,8aS)-3-[3-((S)-4-Hydroxy-6-aza-spiro[2.5]oct-6-yl)-propyl]-6-methyl-5-oxo-hexahydro-oxazolo[3,2-a]pyrazine-7-carboxylic acid (3,4-dichloro-phenyl)-amide] | 0.0029 µM
C[C@H]1C(=O)N2[C@@H](CCCN3CCC4(CC4)[C@H](O)C3)CO[C@@H]2CN1C(=O)Nc1ccc(Cl)c(Cl)c1 [Example 18, (3S,6S,8aR)-3-[3-((S)-4-hydroxy-6-aza-spiro[2.5]oct-6-yl)-propyl]-6-methyl-5-oxo-hexahydro-oxazolo[3,2-a]pyrazine-7-carboxylic acid (3,4-dichloro-phenyl)-amide] | 0.0102 µM
C[C@H]1C(=O)N2[C@@H](CCCN3CCC4(CC4)[C@H](O)C3)CO[C@H]2CN1C(=O)Nc1cccc(Cl)c1 [Example 19, (3S,6S,8aS)-3-[3-((S)-4-Hydroxy-6-aza-spiro[2.5]oct-6-yl)-propyl]-6-methyl-5-oxo-hexahydro-oxazolo[3,2-a]pyrazine-7-carboxylic acid (3-chloro-phenyl)-amide] | 0.0334 µM
C[C@H]1C(=O)N2[C@@H](CCCN3CCC4(CC4)[C@H](O)C3)CO[C@@H]2CN1C(=O)Nc1cccc(Cl)c1 [Example 20, (3S,6S,8aR)-3-[3-((S)-4-hydroxy-6-aza-spiro[2.5]oct-6-yl)-propyl]-6-methyl-5-oxo-hexahydro-oxazolo[3,2-a]pyrazine-7-carboxylic acid (3-chloro-phenyl)-amide] | 0.177 µM
C[C@H]1C(=O)N2[C@@H](CCCN3CCC4(CC4)[C@H](O)C3)CO[C@@]2(C)CN1C(=O)Nc1ccc(Cl)c(Cl)c1 [Example 21, (3S,6S,8aS)-3-[3-((S)-4-Hydroxy-6-aza-spiro[2.5]oct-6-yl)-propyl]-6,8a-dimethyl-5-oxo-hexahydro-oxazolo[3,2-a]pyrazine-7-carboxylic acid (3,4-dichloro-phenyl)-amide] | 0.0038 µM
C[C@H]1C(=O)N2[C@@H](CCCN3CCC4(CC4)[C@H](O)C3)CO[C@]2(C)CN1C(=O)Nc1ccc(Cl)c(Cl)c1 [Example 22, (3S,6S,8aR)-3-[3-((S)-4-hydroxy-6-aza-spiro[2.5]oct-6-yl)-propyl]-6,8a-dimethyl-5-oxo-hexahydro-oxazolo[3,2-a]pyrazine-7-carboxylic acid (3,4-dichloro-phenyl)-amide] | 0.0274 µM

From patent publication US8471004B2, “Bicyclic compounds” (Hoffman-La Roche Inc., priority 2009, dated 2013)
